Assay results from patent publication US12324447B2, “Animal feed compositions and uses thereof” (priority 2015, dated 2025).
“Also recorded” adds a separate entry of the source. Where two headings read alike, the source gives them in different places. Marks after values point to notes of the source that are not given here.

How the values were obtained:
[1] = In vivo piglet trial (growth performance); design: species or system weaned piglets (Large-White x Redon); details: for ADFI (g/d), Mean / ADWG (g/d), Mean / FCR, Mean: SEQ ID NO: 257 50 mg/kg feed, VevoVital 5000 mg/kg feed; for ADFI, % relative NC / ADWG, % relative NC / FCR, % relative NC: relative to negative control
[2] = system: Clostridium perfringens DSM756; format: cell-based; details: for Diameter of clearing zone (mm): lysozymes 100 μg/ml, Bacitracin zinc salt 50 μg/ml
[3] = In vivo broiler trial (growth performance)
[4] = Finisher (d 36-42), SEQ ID NO: 257 25 mg/kg feed, Avilamycin 10 mg/kg
[5] = Finisher (d 36-42), relative to unsupplemented control
[6] = Grower (d 22-36), SEQ ID NO: 257 25 mg/kg feed, Avilamycin 10 mg/kg
[7] = Grower (d 22-36), relative to unsupplemented control
[8] = Starter (d 1-22), SEQ ID NO: 257 25 mg/kg feed, Avilamycin 10 mg/kg
[9] = Starter (d 1-22), relative to unsupplemented control
[10] = Whole period (day 1 to day 42), SEQ ID NO: 257 25 mg/kg feed, Avilamycin 10 mg/kg
[11] = Whole period, relative to unsupplemented control

In the case of `O=C(O)c1ccccc1` [VevoVital, benzoic acid], the “ADFI (g/d), Mean” value ([1]; day 0-14) is reported as 355 g/day, the “ADWG (g/d), Mean” value ([1]; day 0-14) is reported as 304 g/day and the “FCR, Mean” value ([1]; day 0-14) is reported as 1.168^a. For the same molecule, the “ADFI, % relative NC” value ([1]; day 0-14) was 98.6%, the “ADWG, % relative NC” value ([1]; day 0-14) was 104.8% and the “FCR, % relative NC” value ([1]; day 0-14) was 94.2%. For the same molecule, the “ADFI (g/d), Mean” value ([1]; day 0-42) was 709^ab g/d, the “ADWG (g/d), Mean” value ([1]; day 0-42) was 526 g/day and the “FCR, Mean” value ([1]; day 0-42) was 1.342^a. For the same molecule, the “ADFI, % relative NC” value ([1]; day 0-42) was 96.6%, the “ADWG, % relative NC” value ([1]; day 0-42) was 105.4% and the “FCR, % relative NC” value ([1]; day 0-42) was 90.4%. For the same molecule, the “ADFI (g/d), Mean” value ([1]; day 14-42) was 886^ab g/d, the “ADWG (g/d), Mean” value ([1]; day 14-42) was 638 g/day and the “FCR, Mean” value ([1]; day 14-42) was 1.398^a. For the same molecule, the “ADFI, % relative NC” value ([1]; day 14-42) was 95.3%, the “ADWG, % relative NC” value ([1]; day 14-42) was 105.8% and the “FCR, % relative NC” value ([1]; day 14-42) was 90.5%. For the same molecule, the “Improvement on FCR compared to the negative control” value ([1]; overall period (day 0 to day 42), lysozyme 50 mg/kg, VevoVital 5000 mg/kg) was 9.6%, the “Improvement of ADWG compared to NC” value ([1]; pre-starter period (days 0-14)) was 4.8% and the “Improvement of ADWG compared to NC” value ([1]; starter period (days 14-42)) was 5.8%. For the same molecule, the “Improvement to FCR compared to NC” value ([1]; starter period, from day 15 to day 42, SEQ ID NO: 257 50 mg/kg, VevoVital (PC)) was 9.5% and the “Improvement of ADWG compared to NC” value ([1]; whole period (day 0 to day 42)) was 5.4%.

For “Bacitracin zinc salt [reference compound]”, the “Diameter of clearing zone (mm)” value ([2]; Experiment 1, 1/2 MHB pH 6) was 11 mm, the “Diameter of clearing zone (mm)” value ([2]; Experiment 1, 1/10 MHB pH 7) was 22 mm and the “Diameter of clearing zone (mm)” value ([2]; Experiment 2, 1/10 MHB pH 7) was 18 mm.

For `COC[C@H]1O[C@@H](OC2OC[C@@H]3O[C@]4(O[C@H]3[C@H]2OC(=O)C(C)C)O[C@H](C)[C@@](O)(C(C)=O)[C@@H]2OCO[C@H]24)[C@@H](OC)[C@@H](O)[C@@H]1O[C@@H]1O[C@H](C)[C@H](OC)[C@H](O[C@H]2C[C@@]3(C)OC4(C[C@@H](O)[C@H](O[C@H]5C[C@@H](O)[C@H](OC(=O)c6c(C)c(Cl)c(O)c(Cl)c6OC)[C@@H](C)O5)[C@@H](C)O4)O[C@@H]3[C@@H](C)O2)[C@H]1O` (some centres unmarked) [Avilamycin, reference compound], the FCR [3, 4] was 1.982, the “Feed intake (g/b)” value [3, 4] was 1460 g/b and the “Weight gain (g/b)” value [3, 4] was 738 g/b. For the same molecule, the “FCR, Relative to C (%)” value [3, 5] was 101.1%, the “Feed intake, Relative to C (%)” value [3, 5] was 98.2% and the “Weight gain, Relative to C (%)” value [3, 5] was 97.0%. For the same molecule, the FCR [3, 6] was 1.683, the “Feed intake (g/b)” value [3, 6] was 2242 g/b and the “Weight gain (g/b)” value [3, 6] was 1334 g/b. The “FCR, Relative to C (%)” value [3, 7] was 97.7%, the “Feed intake, Relative to C (%)” value [3, 7] was 98.1% and the “Weight gain, Relative to C (%)” value [3, 7] was 100.4%. For the same molecule, the FCR [3, 8] was 1.452, the “Feed intake (g/b)” value [3, 8] was 1593 g/b and the “Weight gain (g/b)” value [3, 8] was 1102 g/b. For the same molecule, the “FCR, Relative to C (%)” value [3, 9] was 100.8%, the “Feed intake, Relative to C (%)” value [3, 9] was 101.0% and the “Weight gain, Relative to C (%)” value [3, 9] was 100.6%. For the same molecule, the EPEF [3, 10] was 397, the FCR [3, 10] was 1.669 and the “Feed intake (g/b)” value [3, 10] was 5312 g/b. For the same molecule, the Motality [3, 10] was 12.5, the “Weight gain (g/b)” value [3, 10] was 3184 g/b and the “EPEF, Relative to C (%)” value [3, 11] was 95.0%. For the same molecule, the “FCR, Relative to C (%)” value [3, 11] was 99.3%, the “Feed intake, Relative to C (%)” value [3, 11] was 99.3% and the “Weight gain, Relative to C (%)” value [3, 11] was 99.9%. The “EPEF worse by (compared to NC diet)” value ([3]; whole period, Avilamycin 10 mg/kg) was 5.0% and the “FCR improvement compared to NC diet” value ([3]; whole period, GH24 lysozyme 25 mg/kg, Avilamycin 10 mg/kg) was 0.7%.

B1: SEQ ID NO: 279: mature GH24 lysozyme from Acremonium alcalophilum, mature sequence of SEQ ID NO: 4 of WO 2013/076259; no LED (protein, listed as Acremonium alcalophilum)
chain: QCVGPEVNSASINLIKEFEGWYPDIYVDPAGYPTVGYGHLCSDSSCSDVSYSIPLSEADGENLLRDDITNFQNCITWQTASSVVLNANQYGALVSWAFNVGCGASESSSLIARLNAGEDPNTVAEEELPRWNQGGGQVLPGLVRRRAAEVELHQIPTDVAALPACS
modifications: mat_peptide (1)..(166)
notes: no LED
In the case of B1, the “Diameter of clearing zone (mm)” value ([2]; Experiment 1, 1/2 MHB pH 6) is reported as 0 mm, the “Diameter of clearing zone (mm)” value ([2]; Experiment 1, 1/10 MHB pH 7) is reported as 0 mm and the “Diameter of clearing zone (mm)” value ([2]; Experiment 2, 1/10 MHB pH 7) is reported as 0 mm. For the same molecule, the “Antimicrobial activity against Clostridium perfringens (in words)” value ([2]; RDA, tested conditions (1/10 MHB pH 7 and 1/2 MHB pH 6)) was “do not have any activity; also recorded: did not inhibit growth”.
